# Test results as given in US11712432B2, “Method of treating cancer with an elevated glycogen content” (University of Kentucky Research Foundation, priority 2018, dated 2023).
# “Also recorded” adds a separate entry of the source. Read-outs that look alike come from different tables or passages of the source.
# Legend:
# A549 adenoma cells = assay: A549 cells treated with increasing concentrations of DAB; assay type: cell-based; conditions: Homo sapiens, FIG. 32A
# Text: (§1) FIGS. 32A-B show graphs illustrating in vitro and in vivo efficacy of the glycogen phosphorylase inhibitor 1,4-dideoxy-1,4-imino-d-arabinitol (DAB) in non-small cell lung cancer.
# A549 xenografts = assay: A549 xenograft, tumor size; assay type: in vivo, athymic nude mice; conditions: 20 mg/kg daily intraperitoneal vs PBS, 15 weeks
# Experimental: as §1
# For in vivo tumor growth, H1299, H2030 and A549 cells were dissociated into single cells, counted and resuspended at 5×10^6 cells per 100 μl of 1:1 media/matrigel (BD). 8-10-week-old female Foxn1^nu/Foxn1^nu(Nude) mice (JAX Laboratories) were injected subcutaneously with 5×10^6 cells on both sides of the flanks. Tumor growth was measured twice a week by caliper in a non-blinded fashion. Tumors were allowed to grow upwards of 1000 mm^3. All mouse experiments were approved by the BCH Animal Care and Use Committee and by the University of Kentucky Institutional Animal Care and Use Committee, both accredited by the Association for Assessment and Accreditation of Laboratory Animal Care and were performed in accordance with relevant institutional and national guidelines and regulations.
# [1] = tested on: A673 Ewing's sarcoma cells; assay: Cell viability after guaiacol treatment, A673; assay type: cell-based; conditions: Homo sapiens
# Experimental: (§2) (A) A673 Ewing's sarcoma cells were treated with increasing concentrations of guaiacol. […] (E) A673 cells (10^7) were injected subcutaneously in athymic nude mice and when the tumor reached 0.1 cm^3 in size, a daily intraperitoneal injection was initiated of either PBS or guaiacol (20 mg/kg) and tumor size was measured over 15 weeks.
# (§3) Glycogen metabolism has not been evaluated as an anti-cancer target in ES. Guaiacol is a naturally occurring compound that is a GYS inhibitor. […] Cell viability after treatment of guaiacol was assessed at various concentrations for 48 hrs in three different ES cell lines (TC32, A673 and HS822T).
# HS822T = assay: Cell viability after guaiacol treatment, HS822T; assay type: cell-based; conditions: 48 hrs, read-out: IC50 (50% cell viability)
# Experimental: as §3, with “Guaiacol as a therapeutic agent to target ES in vitro and in vivo. Glycogen” for “Glycogen”, “HS822T). Guaiacol IC50 (50% cell viability) for all three cell lines is ˜20 μM which corresponds to a 3-fold reduction in total glycogen (A673 is shown in FIGS. 31A-C).” for “HS822T).”
# AMPK [2] = assay: Metformin induced AMPK activation (p-ACC) in guaiacol treated cells; assay type: cell-based; conditions: guaiacol treated cells plus metformin
# TC32 = assay: Cell viability after guaiacol treatment, TC32; assay type: cell-based; conditions: Homo sapiens, TC-32; TC32, 48 hrs; read-out: IC50 (50% cell viability)
# Experimental: as §3, with “Guaiacol as a therapeutic agent to target ES in vitro and in vivo. Glycogen” for “Glycogen”, “HS822T). Guaiacol IC50 (50% cell viability) for all three cell lines is ˜20 μM which corresponds to a 3-fold reduction in total glycogen (A673 is shown in FIGS. 31A-C).” for “HS822T).”
# [3] = general statement; cited from earlier work
# A673 = assay: Total glycogen in guaiacol treated ES cell lines; assay type: cell-based; conditions: at ~20 μM (IC50), A673 shown
# Experimental: Cells were washed twice in PBS and then lysed in 20 mM NaAcetate pH 5.3, 150 mM NaCl, 10% (v/v) glycerol, 1% (v/v) NP-40. Lysates were centrifuged at 10,000×g at 4° C. for ten minutes. Cleared lysates or purified glycogen were dissolved in ddH2O, followed by acid hydrolysis with 2N HCL for 3 h at 98° C. The reaction was quenched with 2N NaOH for subsequent experiments. Glycogen-derived glucose molecules were measured by either biochemical assay or gas chromatography-mass spectrometry (GC-MS). For the biochemical assay, a portion of the digested lysate was incubated for half an hour at room temperature with 100 U L^−1 of both hexokinase and glucose-6-phosphate dehydrogenase (Sigma) in 50 mM Tris-HCl pH 7.5, 5 mM MgCl2, 0.5 mM ATP, 0.5 mM NAD^+. The absorbance was measured at 340 nm using glucose standards to determine glycogen concentration in lysates; undigested lysates were used for background subtraction. […]
# Guaiacol as a therapeutic agent to target ES in vitro and in vivo. Glycogen metabolism has not been evaluated as an anti-cancer target in ES. […] Cell viability after treatment of guaiacol was assessed at various concentrations for 48 hrs in three different ES cell lines (TC32, A673 and HS822T). […]
# [4] = Tolerability in xenograft mice (body weight, motor and behavior testing); assay type: in vivo; conditions: 20 mg/kg daily IP, athymic nude mice
# Experimental: (§4) The efficacy of guaiacol was further tested in the xenograft model of ES. A673 cells (10^6) were injected subcutaneously in athymic nude mice and when the tumor reached 0.1 cm^3 in size daily IP injection of either PBS or guaiacol (20 mg/kg) was initiated and tumor size was measured over 15 weeks.
# A673 xenograft tumors = assay: Normalized glycogen levels in treated xenograft tumors; assay type: in vivo, athymic nude mice; conditions: FIG. 31C
# Experimental: as §2, with “FIGS. 31A-E show graphs illustrating in vitro and in vivo efficacy of the glycogen synthase inhibitor guaiacol as an anti-ES agent. (A)” for “(A)”, “guaiacol. (B) The IC50 for guaiacol is ˜20 μm in A673 cells.” for “guaiacol.”
# as §4
# A673 xenograft = A673 xenograft model of ES, tumor size; assay type: in vivo, athymic nude mice; conditions: 20 mg/kg daily intraperitoneal vs PBS, 15 weeks
# Experimental: as §2, with “FIGS. 31A-E show graphs illustrating in vitro and in vivo efficacy of the glycogen synthase inhibitor guaiacol as an anti-ES agent. (A)” for “(A)”, “guaiacol. (B) The IC50 for guaiacol is ˜20 μm in A673 cells.” for “guaiacol.”
# as §4
# [5] = general statement; cited from earlier work; remark: listed apart in the source
# HEK293 cells = assay: GP localization by immunofluorescence after leptomycin; assay type: cell-based; conditions: leptomycin B for 3 hours
# Text: FIGS. 11A-E show images illustrating that malin ubiquitination of GPBB drives nuclear localization. (A) Immunoblotting analysis of HSP70, laforin, glycogen debranching enzyme (GDE), branching enzyme (BE), and glycogen phosphorylase (GP) with anti-tubulin (Tub) as the loading control in empty vector (EV) or malin-overexpressing (malin-OE) HEK293 cells. (B) Localization of exogenously expressed malin and GP in HEK293 cells assessed by immunofluorescence. (C) In vitro ubiquitination assay using recombinant E1, E2 (UbcH5a), malin, and myc-GP followed by immunoprecipitation with anti-myc, SDS-PAGE, and immunoblotting analysis with an antibody detecting ubiquitin. (D) Effect of inhibition of nuclear […] with leptomycin on GP localization. HEK293 cells were transfected with GFP-MEK or empty vector for the analysis of endogenous GP. Twenty-four hours post-transfection, cells were exposed to leptomycin B for 3 hours, and protein localization was assessed by immunofluorescence. (E) Schematic model for GP nuclear translocation after malin-mediated ubiquitination. All data are representative of three experiments.
# Since GPBB is a novel malin-interacting protein, malin-dependent regulation of its localization was of interest. GPBB is largely localized to the cytoplasm (FIG. 11B). […]
# AMPK [6] = assay: p-AMPK and p-ACC after metformin treatment of ES cells; assay type: cell-based
# Experimental: Whole-cell extracts were generated in RIPA buffer (0.5% deoxycholate, 1% IGEPAL-CA630, 0.1% sodium dodecyl sulfate, 150 mM NaCl, 50 mM Tris-8.1), lysates were cleared by centrifugation and protein concentrations were quantified with the Pierce BCA Protein Assay Kit (Thermo). For western blotting, 25 μg of protein extract per sample was denatured with heat and reducing agents, separated on a 4-12% acrylamide gel (BioRad) and transferred to PVDF (BioRad). Antibodies used for western blotting were: malin (Abcam, 1:1,000), acetyl-H3 (EMDmillipore, 1:1,000), pan-methylation (AbCAM, 1:1,000), myc (Abcam, 1:500), branching enzyme (Lsbio, 1:500), glycogen debranching enzyme (LSBio, 1:1,000), glycogen phosphorylase liver isoform (Cell Signaling Technology 46955 1:2,000), glycogen phosphorylase brain isoform (LSBio, 1:1,000), GAPDH (Abcam 1:1,0000), Histone H3 (Abcam ab1791, 1:20,000), H3K27Ae (Abcam, 1:500), Flag-M2-HRP (Sigma, 1:5000), HSP70 (Abcam, 1:5000) and H3K27me3 (Millipore 07-449; 1:4,000). Each primary antibody was incubated overnight at 4° C. Tubulin (Abcam, 1:20,000) was used as a loading control. All antibodies have detailed species validation available online from vendors. The secondary antibody anti-rabbit IgG, HRP-linked Antibody (Cell Signaling 7074, 1:5,000) or anti-mouse IgG, HRP-linked antibody (Cell Signaling 7076, 1:5,000) was incubated for 1 h at room temperature. After washing, chemiluminescence images were acquired using the ChemiDocMP (BioRad).
# Malin-overexpression cells are more sensitive to the AMPK-activator metformin. Since aberrant ES-glycogen binds to AMPK with high affinity and is inhibitory over p-AMPK activity, malin-OE cells that normalize glycogen architecture should be more sensitive to AMPK activators. Both A673-EV and A673-malin-OE cells were treated with 2 mM metformin and both p-AMPK and p-ACC were assessed.
# [7] = 2 mM metformin, A673-EV and A673-malin-OE cells
structure (smiles),measurement,setting,value
"OC[C@H]1NC[C@@H](O)[C@@H]1O [DAB, 1,4-dideoxy-1,4-imino-D-Arabinitol]",IC50,A549 adenoma cells,~1.5 µM
same,tumor size / xenograft growth,A549 xenografts,failed to continue to proliferate over the course of 15 weeks; also recorded: significantly decreased tumor size as compared to PBS
"COc1ccccc1O [guaiacol, 2-methoxyphenol]",IC50,"[1]; A673, 48 hrs, read-out: IC50 (50% cell viability)",~20 µM
same,IC50,"[1]; A673 cells, FIG. 31B, read-out: IC50",~20 µM
same,IC50,HS822T,~20 µM
same,sensitivity to metformin induced AMPK activation (p-ACC),AMPK [2],"more sensitive to metformin induced AMPK activation, showing more prominent increase in p-ACC"
same,IC50,TC32,~20 µM
same,bioavailability,[3],high bioavailability
same,reduction in total glycogen,A673,3 fold
same,tolerability / adverse side effects,[4],well tolerated in athymic nude mice without any adverse side effects
same,reduction in normalized glycogen levels,A673 xenograft tumors,3 fold
same,reduction in tumor volume at the experiment endpoint,A673 xenograft,4 fold
same,toxicity in vivo,[5],minimal toxicity in vivo
CCC(=C/[C@H](C)C/C=C/C(C)=C/[C@@H](C)C(=O)[C@@H](C)[C@H](O)[C@@H](C)C/C(C)=C/C(=O)O)/C=C/[C@@H]1OC(=O)C=C[C@@H]1C [leptomycin],localization of endogenous GP,HEK293 cells,accumulation of endogenous GP in the nucleus
CN(C)C(=N)N=C(N)N [metformin],p-ACC,AMPK [6]; [7],only the malin-OE cell line showed a significant increase in p-ACC
same,p-AMPK,AMPK [6]; [7],increased p-AMPK in both EV and malin-OE cell lines
same,AMPK activity (p-ACC read out) response to AMPK activator,"AMPK [6]; ES-cells, FIG. 20",insensitive
